Earlier results on 1 molecule are cited in patent US20070003621A1, “Dosage forms for movement disorder treatment” (Spherics, Inc., priority 2005, published 2007).

For this data set the following is noted: doses of 400 mg per day.

Consider `C[C@@](Cc1ccc(O)c(O)c1)(NN)C(=O)O` [carbidopa], for which the adverse effects entry was “fails to elicit adverse effects”.
